Series [1] in a line: Octanol-PBS buffer partition coefficient, log P of the compound incubated for 24 hrs measured at pH 7.4 by shake-flask method. Type of series: physicochemical.
For the next series, the target named is Cholinesterase (Equus caballus, UniProt P81908). The series is described as follows: Inhibition of equine serum BuChE using butyrylthiocholine iodide as substrate preincubated with enzyme for 20 mins followed by substrate addition by Ellman's method.
In series [2] the target is Acetylcholinesterase (Electrophorus electricus) (UniProt O42275). Nature of the series: Inhibition of electric eel AChE at 20 uM using acetylthiocholine iodide as substrate preincubated with enzyme for 20 mins followed by substrate addition by Ellman's method relative to control.
Sequence of Acetylcholinesterase (Electrophorus electricus) (O42275 24-633 limits assumed): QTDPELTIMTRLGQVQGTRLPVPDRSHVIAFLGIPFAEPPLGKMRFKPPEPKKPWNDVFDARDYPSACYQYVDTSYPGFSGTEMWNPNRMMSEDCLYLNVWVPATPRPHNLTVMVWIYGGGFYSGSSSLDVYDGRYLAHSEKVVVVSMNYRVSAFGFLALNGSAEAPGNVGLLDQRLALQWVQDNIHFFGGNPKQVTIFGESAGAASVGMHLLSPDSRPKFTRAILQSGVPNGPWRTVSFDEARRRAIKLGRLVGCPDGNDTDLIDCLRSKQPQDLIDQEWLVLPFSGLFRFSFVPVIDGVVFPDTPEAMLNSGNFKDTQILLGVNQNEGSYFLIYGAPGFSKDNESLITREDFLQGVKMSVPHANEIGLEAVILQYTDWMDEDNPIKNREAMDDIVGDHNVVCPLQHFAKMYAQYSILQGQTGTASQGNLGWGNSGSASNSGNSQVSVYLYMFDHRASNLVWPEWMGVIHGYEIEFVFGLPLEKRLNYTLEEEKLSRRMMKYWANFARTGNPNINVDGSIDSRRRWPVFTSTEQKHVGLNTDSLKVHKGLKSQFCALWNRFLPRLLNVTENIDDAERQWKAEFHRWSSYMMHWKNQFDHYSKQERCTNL
The next series has as its target Acetylcholinesterase (Electrophorus electricus, UniProt O42275). Nature of the series: Inhibition of electric eel AChE using acetylthiocholine iodide as substrate preincubated with enzyme for 20 mins followed by substrate addition by Ellman's method.
Series [3] has as its target Cholinesterase (Equus caballus) (UniProt P81908). Nature of the series: Reversible inhibition of equine serum BChE at 0.4 to 1 uM using varying levels of butyrylcholine iodide as substrate.

SMILES strings stand for the structures. The source made the active and inactive calls.

Sequence of Cholinesterase (P81908 whole entry): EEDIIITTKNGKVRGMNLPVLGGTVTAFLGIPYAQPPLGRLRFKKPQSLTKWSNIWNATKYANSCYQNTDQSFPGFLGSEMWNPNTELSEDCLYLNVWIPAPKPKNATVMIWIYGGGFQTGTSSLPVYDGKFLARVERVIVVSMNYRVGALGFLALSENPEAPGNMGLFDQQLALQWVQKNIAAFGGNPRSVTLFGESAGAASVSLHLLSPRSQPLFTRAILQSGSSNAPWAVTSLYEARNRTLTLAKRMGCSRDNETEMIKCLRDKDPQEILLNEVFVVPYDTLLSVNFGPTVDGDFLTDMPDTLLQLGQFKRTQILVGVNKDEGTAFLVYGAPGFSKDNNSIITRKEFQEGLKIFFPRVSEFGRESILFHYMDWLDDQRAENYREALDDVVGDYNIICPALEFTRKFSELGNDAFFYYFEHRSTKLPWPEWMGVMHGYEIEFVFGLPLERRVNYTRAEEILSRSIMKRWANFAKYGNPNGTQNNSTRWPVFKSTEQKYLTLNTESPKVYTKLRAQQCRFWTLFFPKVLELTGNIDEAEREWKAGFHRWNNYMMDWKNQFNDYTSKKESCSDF
Sequence of Acetylcholinesterase (O42275 whole entry): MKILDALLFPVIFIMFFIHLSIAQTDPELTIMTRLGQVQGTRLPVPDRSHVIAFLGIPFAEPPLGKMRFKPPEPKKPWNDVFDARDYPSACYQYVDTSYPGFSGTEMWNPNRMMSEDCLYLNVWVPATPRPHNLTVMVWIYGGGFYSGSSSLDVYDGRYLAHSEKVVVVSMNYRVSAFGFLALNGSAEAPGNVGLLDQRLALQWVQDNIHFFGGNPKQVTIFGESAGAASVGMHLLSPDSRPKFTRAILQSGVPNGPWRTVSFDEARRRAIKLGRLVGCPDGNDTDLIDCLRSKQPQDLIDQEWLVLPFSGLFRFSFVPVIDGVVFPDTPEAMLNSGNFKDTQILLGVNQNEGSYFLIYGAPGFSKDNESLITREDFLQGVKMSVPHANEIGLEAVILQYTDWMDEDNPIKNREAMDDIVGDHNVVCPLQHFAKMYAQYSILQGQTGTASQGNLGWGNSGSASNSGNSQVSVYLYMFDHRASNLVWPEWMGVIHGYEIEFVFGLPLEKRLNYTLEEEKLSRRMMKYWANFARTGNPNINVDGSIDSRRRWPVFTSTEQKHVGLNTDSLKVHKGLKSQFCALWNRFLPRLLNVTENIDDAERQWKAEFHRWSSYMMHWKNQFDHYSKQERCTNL
Sequence of Cholinesterase (Equus caballus) (P81908 whole entry): as the sequence (P81908 whole entry) above

In the case of `O=S1(=O)CC(c2ccc(F)cc2)c2c(C3CC3)nn(-c3ccccc3Cl)c2O1` (stereo not drawn), the logD at 24 h in series [1] was found to be 2.04. Besides, on Cholinesterase, the concentration for half-maximal inhibition (IC50) was 6.02 µM. In series [2], the inhibition result was “inactive”.
At Acetylcholinesterase, `CC1=NN2C(=O)Oc3c(Cl)cc(Cl)cc3C2C1` (stereo not drawn) had a half-inhibitory concentration (IC50) above 20 µM.
In series [1], `O=S1(=O)CCc2c(C3CC3)nn(-c3ccccc3F)c2O1` registered a logD at 24 h of 2.09. This molecule registered an IC50 against Cholinesterase of 0.199 µM. In series [3], the inhibition entry is “Active”. For the same molecule, the inhibition result in series [2] is “inactive”.
For the molecule `Cc1nn(-c2ccccc2F)c2c1CCS(=O)(=O)O2`, in series [1], the logD at 24 h stood at 1.86. On Cholinesterase, this molecule yielded an IC50 of 1.8 µM. Besides, the inhibition result in series [2] was “inactive”.
`COc1cccc(C2CS(=O)(=O)Oc3c2c(C2CC2)nn3-c2ccccc2F)c1` (stereo not drawn) returned a pH-dependent lipophilicity (logD) at 24 h in series [1] of 2.01. The 50% inhibitory concentration (IC50) against Cholinesterase stood at 3.47 µM. In addition, the inhibition entry in series [2] is “inactive”.
Take `Cc1nn(-c2ccccc2)c2c1C(/C=C/c1cccc(C#N)c1)CS(=O)(=O)O2` (stereo not drawn): the half-inhibitory concentration (IC50) stood at 10.6 µM against Cholinesterase and 16.3 µM against Acetylcholinesterase.
Consider `O=S1(=O)CC(c2cccc(F)c2)c2c(C3CC3)nn(-c3ccccc3F)c2O1` (stereo not drawn), for which the pH-dependent lipophilicity (logD) at 24 h in series [1] is 2.86. At Cholinesterase, this molecule displayed a half-maximal inhibitory concentration (IC50) of 4.01 µM. In series [2], the inhibition entry was “inactive”.
For `O=S1(=O)CC(c2ccc(F)cc2)c2c(C3CC3)nn(-c3ccccc3F)c2O1` (stereo not drawn) the same measures were 1.76, 7.76 µM and “inactive”.
The molecule `COc1ccc(-c2nn(-c3ccc(Cl)cc3)c3c2C(c2ccc(Br)c(C)c2)CS(=O)(=O)O3)cc1` (stereo not drawn) had a half-maximal inhibitory concentration (IC50) against Cholinesterase of 13.3 µM. Moreover, the inhibition entry in series [2] is “inactive”.
Turning to `Cc1ccc(C2CS(=O)(=O)Oc3c2c(C)nn3-c2ccccc2)cc1Br` (stereo not drawn), at Cholinesterase, the IC50 was found to be 18.3 µM. Besides, in series [2], the inhibition entry is “inactive”.
In the case of `COc1ccc(-c2nn(-c3ccccc3F)c3c2C(c2ccc(Br)c(C)c2)CS(=O)(=O)O3)cc1` (stereo not drawn), the pH-dependent lipophilicity (logD) at 24 h in series [1] was found to be 2.91. In addition, on Cholinesterase, 4.33 µM corresponded to half-maximal inhibition (IC50). In addition, in series [2], the inhibition result is “inactive”.
`Cc1nn(-c2ccccc2F)c2c1C(c1ccc(F)cc1)CS(=O)(=O)O2` (stereo not drawn) displayed a logD at 24 h in series [1] of 2.13. At Cholinesterase, this molecule had an IC50 of 6.1 µM. Besides, the inhibition entry in series [2] was “inactive”.
In the case of `COc1cccc(C2CS(=O)(=O)Oc3c2c(C2CC2)nn3-c2cccc(F)c2)c1` (stereo not drawn), the 50% inhibitory concentration (IC50) against Cholinesterase was determined as 14.3 µM. Moreover, the inhibition entry in series [2] is “inactive”.
In series [1], `Cc1cc(C2CS(=O)(=O)Oc3c2c(C)nn3-c2ccccc2F)ccc1Br` (stereo not drawn) came in with a log distribution coefficient (logD) at 24 h of 2.26. Inhibition on Cholinesterase was half-maximal at 3.83 µM (IC50). Also, the inhibition result in series [2] was “inactive”.
For `Cc1cc(C2CS(=O)(=O)Oc3c2c(C2CC2)nn3-c2ccccc2Cl)ccc1Br` (stereo not drawn) the same measures were 2.53, 3.77 µM and “inactive”.
Take `Cc1cc(C2CS(=O)(=O)Oc3c2c(C2CC2)nn3-c2ccccc2F)ccc1Br` (stereo not drawn): in series [1], the logD at 24 h was 2.72. Further, it took 5.71 µM to reach half-maximal inhibition against Cholinesterase (IC50). Moreover, the inhibition result in series [2] is “inactive”.
For `O=S1(=O)CC(c2cccc(C(F)(F)F)c2)c2c(C3CC3)nn(-c3cccc(F)c3)c2O1` (stereo not drawn) the same measures were 2.73, 4.62 µM and “inactive”.
`Cc1nn(-c2ccccc2)c2c1C(c1cccc(C(F)(F)F)c1)CS(=O)(=O)O2` (stereo not drawn) returned a 50% inhibitory concentration (IC50) against Cholinesterase of 16.4 µM. For the same molecule, the inhibition entry in series [2] is “inactive”.
